{"source": "patent US8507446B2", "about": "“Use of PEDF-derived polypeptides for treating liver cirrhosis” (MacKay Memorial Hospital, priority 2011, dated 2013)", "key": {"HSC-T6 cells": {"system": "HSC-T6 cells", "test": "PPARγ induction and PPARγ siRNA reversal in HSC-T6 cells", "format": "cell-based, rat", "description": "HSC-T6 cells, a rat immortalized HSC, retained all features of activated HSCs and was kindly provided by Dr. Friedman S L (Kim et al., J Biol Chem 1998 273:33750-33758). HSC-T6 cells were grown in Waymouth medium supplemented with 10% FBS at 37° C. in a humidified atmosphere of 5% CO2.\nThe total RNA was extracted from cells using the TRIzol (Invitrogen, Carlsbad, Calif.). […] The intensities of the PCR products were quantified using a FUJI LAS-3000 densitometer and Multi Gauge Ver. […]\nCells were scraped into lysis buffer (150 μL/35-mm well) containing 20 mM HEPES (pH 7.4), 1% SDS, 150 mM NaCl, 1 mM EGTA, 5 mM β-glycerophosphate, 10 mM sodium pyrophosphate, 10 mM sodium fluoride, […] sodium orthovanadate, 10 μg/mL leupeptin, and 10 μg/mL aprotinin. […] Proteins of interest were detected using the appropriate IgG-HRP secondary antibody and ECL reagent. X-ray films were scanned on a Model GS-700 Imaging Densitometer (Bio-Rad Laboratories, Hercules, Calif.) and analyzed using Labworks 4.0 software. For quantification, blots from at least three independent experiments were used. […]"}, "[1]": {"system": "culture-activated primary rat HSCs", "test": "Activation of culture-activated primary hepatic stellate cells", "format": "cell-based", "details": "for Col1a1 expression (immunoblot) / MCP-1 expression (immunoblot) / amounts of PPARγ (immunoblot) / α-SMA expression (immunoblot): 48 hours vs solvent, 4.5 nM PEDF, 50 nM 34-mer, 50 nM 44-mer; for α-SMA by immunofluorescent staining: 34-mer compared with 44-mer PEDF treatment; for HSC morphology: phase contrast / immunofluorescence", "description": "Primary HSCs were isolated by in situ perfusion with collagenase and pronase from livers of male Sprague-Dawley rats (300-450 g), followed by a 25%/50% Percoll gradient centrifugation at 4° C. HSCs were isolated from the upper layer of the discontinuous Percoll density gradient as previously described method (Titos et al., FASEB J 2003 17:1745-1747). Then cells were re-suspended in Dulbecco's modified Eagle's medium (DMEM) supplemented with 10% fetal bovine serum (FBS) and 1% penicillin/streptomycin and plated on 100-mm plastic dishes. Cell purity was verified to be approximately 95-98% by vitamin A fluorescence on day 2 after isolation. HSCs were activated by culturing the cells on plastic for 10 days and then passaged by trypsin-EDTA treatment. Subsequently, the activated HSCs were incubated in 10% FBS-DMEM for 2 days and then used for further experiments.\n(§1) Deparaffinized liver tissue sections or 4% paraformaldehyde fixed HSCs were blocked with 10% goat serum and 5% BSA for 1 h. Dual staining was done using primary antibodies against human PEDF (se-59641; Santa Cruz Biotechnology, CA, USA) or α-SMA (ab5694 or ab7817; Abcam), PPARγ (sc-7273; Santa Cruz Biotechnology), albumin (sc-46295; Santa Cruz Biotechnology) or cytokeratin (CK) 18 (GTX112978; GeneTex, Inc.) at 37° C. for 2 h, followed by incubation with the appropriate rhodamine- or FITC-conjugated donkey IgG for 1 hr at room temperature. Nuclei were located by counterstaining with Hoechst 33258 for 7 min. Images were captured using a Zeiss epifluorescence microscope with a CCD camera.\n(§2) Cells were scraped into lysis buffer (150 μL/35-mm well) containing 20 mM HEPES (pH 7.4), 1% SDS, 150 mM NaCl, 1 mM EGTA, 5 mM β-glycerophosphate, 10 mM sodium pyrophosphate, 10 mM sodium fluoride, […] sodium orthovanadate, 10 μg/mL leupeptin, and 10 μg/mL aprotinin. The lysate was incubated on ice for 15 min. Total cell lysate was also separated into cytoplasmic and nuclear fractions using the NE-PER nuclear and cytoplasmic extraction kit (Pierce, Rockford, Ill.) according to the manufacturer's instructions. Each cellular fraction was then resolved by SDS-PAGE and then electrotransferred to polyvinylidene difluoride membranes (Millipore, Bedford, Mass.) and processed for immunoblot analysis. Antibodies used in the immunoblot study included human PEDF (sc-59641; Santa Cruz Biotechnology), mouse PEDF (sc-74253; Santa Cruz Biotechnology), type I collagen 1A1 (sc-25974; Santa Cruz Biotechnology), α-SMA (ab5694 or ab7817; Abcam), PPARγ••(sc-7273; Santa Cruz Biotechnology), MCP-1 (ab7202; Abcam Ltd), α-actin (Sigma), epithelial cell adhesion molecule (EpCAM; sc-66020; Santa Cruz Biotechnology), hepatocytes nuclear factor and (HVF)3-β (sc-6554; Santa Cruz Biotechnology). Proteins of interest were detected using the appropriate IgG-HRP secondary antibody and ECL reagent. X-ray films were scanned on a Model GS-700 Imaging Densitometer (Bio-Rad Laboratories, Hercules, Calif.) and analyzed using Labworks 4.0 software. For quantification, blots from at least three independent experiments were used.\nAfter treatment, primary rat HSCs were fixed for 2 h with 4% paraformaldehyde, washed by PBS and then permeabilized for 5 min with 0.1% Triton X-100. Changes in F-actin structures were detected by […] rhodamine-conjugated phalloidin (Sigma) for 1 h at room temperature. Stained F-actin was visualized using a Zeiss Axiovert 25 microscope.\nTo verify whether the PEDF-derived peptides, particularly, 34-mer PEDF and 44-mer PEDF, may prevent HSCs from activation, culture-activated primary rat HSCs were treated with 4.5 nM PEDF, 50 nM 44-mer, 50 nM 34-mer or PEDF solvent (20 mM Tris/HCl, pH 7.4, 100 mM NaCl) for 48 hours. […] Immunofluorescent assay also confirmed that 34-mer PEDF reduced the levels of α-SMA in culture-activated HSCs as compared with 44-mer PEDF treatment (FIG. 6F). Such result is consistent with the finding in Example 1 that PEDF prevents HSCs from activation by induction of PPARγ."}, "[2]": {"system": "liver-derived progenitor cells (LDPCs) in primary rat liver cells", "test": "Clonogenic capacity of liver cells (LDPC colony formation)", "format": "cell-based", "details": "basal medium with 4.5 nM PEDF, 50 nM 34-mer, 50 nM 44-mer or 10% FBS; after 11 days in culture", "description": "(§3) Liver cells from Sprague Dawley rats were harvested by 2-step in situ collagenase perfusion technique. The cells were then washed in phosphate buffered saline and centrifuged (50 g for 5 minutes) twice at room temperature. The cells were not further subjected to any fractionation as previously described (Sahin M B et al., Liver Transpl. 2008 14(3):333-45). Freshly isolated rat liver cells were cultured in a medium consisting of 75% Dulbecco's modified Eagle's medium (DMEM) and 25% MCDB 201 (Sigma-Aldrich) supplemented with 10% fetal bovine serum, 1 mg/mL of bovine serum albumin (BSA; Sigma), 100 μM of β-mercaptoethanol (Gibco, Carlsbad, Calif.), 25 mM of 4-2-hydroxyethyl-1-piperazineethanesulfonic acid (HEPES), 5 mM of Nicotinamide (Sigma-Aldrich), 1% SITE liquid medium (Sigma-Aldrich), and penicillin (100 μg/ml)/streptomycin (100 μg/ml; Invitrogen, Carlsbad, Calif.) on Type I collagen (Sigma, St. Louis, Mo.) coated tissue culture plates or dishes at a density of 1×10^4 cells/cm^2 at 37° C. in 5% CO2.\nTo verify the function of 44-mer PEDF, primary rat liver cells were isolated in accordance with steps described above and cultivated (about 1×10^5 per well of 6-well plate; 1×10^4 cells/cm^2) in a conventional basal medium, which was further supplemented with 4.5 nM PEDF, 50 nM 34-mer PEDF, 50 nM 44-mer PEDF or 10% FBS. Medium was changed every 3 days. After being placed in culture for 11 days, clonogenic capacity of liver cells was continuously monitored by phase-contrast microscopy. During this time period, liver-derived progenitor cells (LDPCs) began markedly emerged in primary liver cultures while hepatocytes started dying out. Few colonies were formed by liver cells when continuously cultivated in basal medium, or medium supplemented with 34-mer or FBS."}, "[3]": {"system": "liver-derived progenitor cells (LDPCs)", "test": "Self-renewal of LDPCs over two passages and differentiation into hepatocytes", "format": "cell-based, rat", "details": "for autofluorescence (LDPC marker): 4.5 nM PEDF, 50 nM 34-mer or 50 nM 44-mer; for autofluorescence (LDPC marker) / self-renewal by expression of LDPC markers EpCAM and HNF3-β (immunoblot): two passages, 35 days; for ability of expanded LDPCs to differentiate into hepatocytes (albumin and CK-18 staining): immunofluorescence", "description": "as §3, §1, §2\nIt has been reported that LDPCs may not be expanded in conventional basal medium, unless growth factor(s) were added therein (Sahin et al., Liver Transpl. 2008 14(3):333-45). To test the self-renewal property of PEDF derived peptides on LDPCs, liver cells were isolated and grown in separate medium including 4.5 nM (200 ng/ml) PEDF, 50 nM 34-mer or 50 nM 44-mer for two passages, which took a period of 35 days. The newly produced LDPCs in the cultured cells were confirmed by the detection of autofluorescence emitted therefrom; as well as two LDPC markers, which are epithelial cell adhesion molecule (EpCAM) and hepatocytes nuclear factor 3•••(HNF3)-β, by immunoblot analysis. […]"}}, "data": [{"molecule": "PPARγ siRNA: rat PPARγ siRNA (SEQ ID NO: 7/8) or a mixture of four rat PPARγ siRNAs (SMART-pools) (chain 1 CACCAUUUGUCAUCUACGATT; chain 2 UCGUAGAUGACAAAUGGUGTT; chemistry not given here) [reference compound]", "values": [{"measurement": "suppressive effects of PEDF on HSC activation (α-SMA, Col1a1, MCP-1)", "setting": "HSC-T6 cells; siRNA pretreatment 16 hours before PEDF, 10 nM siRNA", "value": "significantly reduced the suppressive effects of PEDF"}]}, {"molecule": "34-mer PEDF: synthetic human peptide, the segment of PEDF from amino acid residues 44 to 77 (Ac-DPFFKVPVNKLAAAVSNFGYDLYRVRSSTSPTTN-NH2)", "values": [{"measurement": "Col1a1 expression (immunoblot)", "setting": "[1]", "value": "reduced"}, {"measurement": "MCP-1 expression (immunoblot)", "setting": "[1]", "value": "reduced"}, {"measurement": "amounts of PPARγ (immunoblot)", "setting": "[1]", "value": "enhanced"}, {"measurement": "α-SMA expression (immunoblot)", "setting": "[1]", "value": "reduced"}, {"measurement": "α-SMA by immunofluorescent staining", "setting": "[1]; culture-activated HSCs", "value": "reduced"}, {"measurement": "HSC morphology", "setting": "[1]; culture-activated HSCs", "value": "causes reversal of the activated HSC morphology"}, {"measurement": "colonies of LDPCs formed", "setting": "[2]", "value": "Few colonies"}, {"measurement": "autofluorescence (LDPC marker)", "setting": "[3]", "value": "very little autofluorescence or none at all"}]}, {"molecule": "Ac-VLLSPLSVATALSALSLGAEQRTESIIHRALTTDLISSPDIHGT-NH2 [44-mer PEDF]", "values": [{"measurement": "Col1a1 expression (immunoblot)", "setting": "[1]", "value": "does not possess such effects"}, {"measurement": "MCP-1 expression (immunoblot)", "setting": "[1]", "value": "does not possess such effects"}, {"measurement": "amounts of PPARγ (immunoblot)", "setting": "[1]", "value": "does not possess such effects"}, {"measurement": "α-SMA expression (immunoblot)", "setting": "[1]", "value": "does not possess such effects"}, {"measurement": "colonies of LDPCs formed", "setting": "[2]", "value": "dense colonies"}, {"measurement": "autofluorescence (LDPC marker)", "setting": "[3]", "value": "emitted autofluorescence"}, {"measurement": "ability of expanded LDPCs to differentiate into hepatocytes (albumin and CK-18 staining)", "setting": "[3]", "value": "retain the ability of differentiating into hepatocyte"}, {"measurement": "self-renewal by expression of LDPC markers EpCAM and HNF3-β (immunoblot)", "setting": "[3]", "value": "exhibits self-renewal property"}]}, {"molecule": "pigment-epithelium-derived factor (protein, UniProt P36955 20-418, looked up, pigment-epithelium-derived factor protein, used at 4.5 nM (200 ng/ml)) Pigment epithelium-derived …: QNPASPPEEGSPDPDSTGALVEEEDPFFKVPVNKLAAAVSNFGYDLYRVRSSTSPTTNVLLSPLSVATALSALSLGAEQRTESIIHRALYYDLISSPDIHGTYKELLDTVTAPQKNLKSASRIVFEKKLRIKSSFVAPLEKSYGTRPRVLTGNPRLDLQEINNWVQAQMKGKLARSTKEIPDEISILLLGVAHFKGQWVTKFDSRKTSLEDFYLDEERTVRVPMMSDPKAVLRYGLDSDLSCKIAQLPLTGSMSIIFFLPLKVTQNLTLIEESLTSEFIHDIDRELKTVQAVLTVPKLKLSYEGEVTKSLQEMKLQSLFDSPDFSKITGKPIKLTQVEHRAGFEWNEDGAGTTPSPGLQPAHLTFPLDYHLNQPFIFVLRDTDTGALLFIGKILDPRGP", "values": [{"measurement": "Col1a1 expression (immunoblot)", "setting": "[1]", "value": "significantly reduced"}, {"measurement": "MCP-1 expression (immunoblot)", "setting": "[1]", "value": "significantly reduced"}, {"measurement": "amounts of PPARγ (immunoblot)", "setting": "[1]", "value": "enhanced"}, {"measurement": "α-SMA expression (immunoblot)", "setting": "[1]", "value": "significantly reduced"}, {"measurement": "stress fiber (F-actin, rhodamine-phalloidin staining)", "setting": "[1]; culture-activated HSCs", "value": "reduced"}, {"measurement": "α-SMA by immunofluorescent staining", "setting": "[1]; culture-activated HSCs", "value": "reduced"}, {"measurement": "HSC morphology", "setting": "[1]; culture-activated HSCs", "value": "dendritic-like morphology with retracted cytoplasm"}, {"measurement": "mRNA and protein expression of PPARγ", "setting": "HSC-T6 cells; 48 hours, RT-PCR and immunoblot", "value": "induced"}, {"measurement": "colonies of LDPCs formed", "setting": "[2]", "value": "dense colonies"}, {"measurement": "autofluorescence (LDPC marker)", "setting": "[3]", "value": "emitted autofluorescence"}, {"measurement": "ability of expanded LDPCs to differentiate into hepatocytes (albumin and CK-18 staining)", "setting": "[3]", "value": "retain the ability of differentiating into hepatocyte"}, {"measurement": "self-renewal by expression of LDPC markers EpCAM and HNF3-β (immunoblot)", "setting": "[3]", "value": "exhibits self-renewal property"}]}]}
